Measured values taken from PMC4241293, “Sulfa Drugs as Inhibitors of Carbonic Anhydrase: New Targets for the Old Drugs” (BioMed Research International, 2014).

Tests used:
[1] = molecular target: bovine cytosolic carbonic anhydrase II (bCA II) (Bos taurus, UniProt P00921); test: In vitro carbonic anhydrase inhibition assay (p-nitrophenyl acetate hydrolysis); format: biochemical; conditions: for IC50: mean of three independent experiments ± SEM; for inhibition at 500 µM: at 0.5 mM concentration of tested compounds, mean ± SEM
Sequence of bovine cytosolic carbonic anhydrase II (bCA II) (P00921 whole entry): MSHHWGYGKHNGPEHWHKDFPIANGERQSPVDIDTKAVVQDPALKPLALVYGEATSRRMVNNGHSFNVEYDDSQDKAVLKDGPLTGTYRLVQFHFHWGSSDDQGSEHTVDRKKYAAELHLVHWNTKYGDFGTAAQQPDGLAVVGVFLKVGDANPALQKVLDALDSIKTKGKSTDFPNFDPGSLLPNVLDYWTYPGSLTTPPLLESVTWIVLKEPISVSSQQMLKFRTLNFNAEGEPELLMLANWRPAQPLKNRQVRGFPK
Protocol: Carbonic anhydrase inhibition was measured by the reported method after standardization of reaction conditions such as concentration of enzyme and substrate, buffer pH, and duration of reaction. The method is based on spectrophotometric determination p-nitrophenol, the CA catalyzed hydrolysis product of p-nitrophenyl acetate. The reaction mixture consisted of 60 μL of 50 mM Tris-sulfate buffer (pH 7.6, containing 0.1 mM ZnCl2), 10 μL (0.5 mM) test compound in 1% DMSO, and 10 μL (50 U) bovine enzyme per well. […] Substrate, p-nitrophenyl acetate (6 mM stock using <5% acetonitrile in buffer), 20 μL was freshly prepared and added per well to achieve […] concentration per well. Total reaction volume was made to 100 μL.
The CA active site residues involved in direct zinc binding are His94, His96, and His119. In addition the substrate (CO2) association pocket, Thr199 loop, and the histidine proton shuttle mechanism (for regeneration of active site Zn bound hydroxide ion) are essential for CA catalytic activity and are highly conserved in all alpha class CAs. For this reason initial screening against bCA-II was carried out.

| Compound | IC50 [1] | melting point | inhibition at 500 µM [1] |
| --- | --- | --- | --- |
| Cc1ccnc(NS(=O)(=O)c2ccc(Nc3nc(Cl)nc(Cl)n3)cc2)n1 [1a, 4-[(4,6-Dichloro-1,3,5-triazin-2-yl)amino]-N-(4-methylpyrimidin-2-yl)benzenesulfonamide] | 4.14 ± 0.02 µM | 235 to 237 °C |  |
| O=S(=O)(Nc1ncccn1)c1ccc(Nc2nc(Cl)nc(Cl)n2)cc1 [3a, 4-[(4,6-Dichloro-1,3,5-triazin-2-yl)amino]-N-(pyrimidin-2-yl)benzenesulfonamide] | 24.9 ± 0.03 µM | 221 to 223 °C |  |
| Cc1cc(C)nc(NS(=O)(=O)c2ccc(Nc3nc(Cl)nc(Cl)n3)cc2)n1 [4a, 4-[(4,6-Dichloro-1,3,5-triazin-2-yl)amino]-N-(4,6-dimethylpyrimidin-2-yl)benzenesulfonamide] | 14.9 ± 0.02 µM | 327 to 329 °C |  |
| O=S(=O)(Nc1cncc(Cl)n1)c1ccc(Nc2nc(Cl)nc(Cl)n2)cc1 [5a, N-(6-Chloropyrazin-2-yl)-4-[(4,6-dichloro-1,3,5-triazin-2-yl)amino]benzenesulfonamide] | 1.49 ± 0.006 µM | 236 to 238 °C |  |

Other lines, results leading:

| IC50 [1] | melting point | inhibition at 500 µM [1] | Compound |
| --- | --- | --- | --- |
| 105.3 ± 0.16 µM | 268 to 270 °C |  | O=S(=O)(Nc1cnc2ccccc2n1)c1ccc(Nc2nc(Cl)nc(Cl)n2)cc1 [2a, 4-[(4,6-Dichloro-1,3,5-triazin-2-yl)amino]-N-(quinoxalin-2-yl)benzenesulfonamide] |
|  |  | 51.8% | Nc1ccc(S(=O)(=O)Nc2cnc3ccccc3n2)cc1 [2b, sulfaquinoxaline, reference compound] |
|  |  | 41.7% | Cc1cc(C)nc(NS(=O)(=O)c2ccc(N)cc2)n1 [4b, sulfadimidine, reference compound] |
|  |  | 42.4% | Nc1ccc(S(=O)(=O)Nc2cncc(Cl)n2)cc1 [5b, sulfachloropyrazine, reference compound] |
